Reference: patent US20140121185A1 (Medicon Pharmaceuticals, Inc., priority 2012, published 2014)

Assays:
AsPC-1 = test: Pancreatic cancer cell growth, 24 h; type: cell-based, human; conditions: AsPC-1, escalating concentrations
Procedure: (§1) Cell growth was determined in the human pancreatic cancer cell lines AsPC-1, CFPAC-1, Capan-2, Panc-1 and MIA PaCa-2 after treatment with escalating concentrations of P-FTS 35 for 24 h.

CFPAC-1 = test: Pancreatic cancer cell growth, 24 h; type: cell-based, human; conditions: CFPAC-1, escalating concentrations
Procedure: as §1

Capan-2 = test: Pancreatic cancer cell growth, 24 h; type: cell-based, human; conditions: Capan-2, escalating concentrations
Procedure: as §1

MIA PaCa-2 = test: Pancreatic cancer cell growth, 24 h; type: cell-based, human; conditions: MIA PaCa-2, escalating concentrations
Procedure: as §1

Panc-1 = test: Pancreatic cancer cell growth, 24 h; type: cell-based, human; conditions: Panc-1, escalating concentrations
Procedure: as §1

MIA PaCa-2 cells = test: Pancreatic cancer xenograft model in nude mice; type: in vivo; conditions: for reduction of tumor volume growth: day 25
Procedure: The in vivo chemotherapeutic potential of P-FTS 35 was assessed using a pancreatic cancer xenograft model. MIA PaCa-2 cells were injected subcutaneously into the flank areas of nude mice. When palpable tumors were observed, the mice received P-FTS 35, 50 or 100 mg/kg/d by oral gavage in corn oil or just corn oil (control) for 25 days. On day 25 of treatment, P-FTS 35, 50 mg/kg/d, and P-FTS 35, 100 mg/kg/d reduced the tumor volume growth by 62% and 65%, respectively (p<0.05; FIG. 5).

[1] = 3-week oral toxicity in BALB/c mice; type: in vivo
Procedure: The toxicity of P-FTS 35 in mice was further examined. Groups of 6 week-old female BALB/c mice (5 mice/group) were given by oral gavage once a day for 3 weeks P-FTS 35: 0, 75, 150, 250 and 350 mg/kg. […] The (sub-chronic) maximum tolerated dose of P-FTS 35 (3-wk period of observation) was determined to be at least 350 mg/kg/d.

Ras [2] = test: Ras-GTP pull down assay in Panc-1 cells; type: cell-based, human; conditions: 24 h
Description: (§2) In the following experiments it was examined whether the pancreatic cancer growth inhibitory effect of P-FTS 35 is associated with down regulation of Ras signaling. For this purpose, we used the Ras-GTP pull down assay.

[3] = system: RAF/MEK/ERK and PI3K/AKT pathways; test: Immunoblots of Ras downstream effectors in Panc-1 cells; type: cell-based, human
Description: C: Immunoblots of p-c-RAF, c-RAF, p-MEK, MEK, p-AKT and AKT in whole cell protein extracts from Panc-1 cells treated with P-FTS 35 as indicated. Loading control: β-actin.
as §2

Ras [4] = test: Ras-GTP pull down assay in lysates from MIA PaCa-2 xenografts; type: in vivo, nude mice; conditions: compared to controls
Procedure: (§3) The inhibition of Ras by P-FTS 35 was further confirmed in vivo. The Ras-GTP pull down assay was used to test the capacity of P-FTS 35 to inhibit active Ras in fresh protein lysates from MIA PaCa-2 xenografts. Compared to controls, P-FTS 35, 50 and 100 mg/kg reduced RAS activation in xenografts by 62% and 70%, respectively (p<0.01, for both; FIG. 8A).

p-ERK and p-AKT = test: Immunoblotting of MIA PaCa-2 xenografts; type: in vivo, nude mice
Procedure: B: Immunoblots of p-ERK, ERK, p-AKT and AKT in whole cell protein extracts from MIA PaCa-2 xenografts. Loading control: β-actin.
as §3

p-c-RAF = test: Immunostaining of xenograft tissue sections; type: in vivo, nude mice; conditions: compared to control
p-ERK1/2 = test: Immunostaining of xenograft tissue sections; type: in vivo, nude mice; conditions: compared to control
Procedure: C: Growth of xenograft tumors treated without or with P-FTS 35 and stained for p-ERK expression. The percentage of p-ERK positive cells/field were determined and expressed as the mean±SEM (*P<0.03).
as §3

[5] = Tolerated dose in mice (PA, ASA); type: in vivo
Procedure: The ability of phospho-aspirin (PA) to prevent breast cancer (BC) was evaluated using MDA-MB-231 human BC cells xenografted into one of the mammary glands of nude mice (orthotopic xenografts). PA was administered orally, 120 mg/kg/d 1 wk prior to inoculating the cells (the standard prevention protocol); acetylsalicylic acid (ASA) was given at an equimolar dose of 40 mg/kg/d. This was the highest dose of ASA that these mice could tolerate on a long-term basis. The dose of PA represents <10% of its maximum tolerated dose (MTD≧1,600 mg/kg), but was chosen so that a comparison between PA and ASA was possible.

[6] = Levels of PA and metabolites in blood and xenografts by HPLC; type: in vivo, mice; conditions: for metabolites detected in plasma and xenograft tumors: mice treated with PA or ASA
Procedure: The levels of PA and some of its metabolites in blood and xenografts from these mice were determined by HPLC according to the methods described by G. Xie et al. (Br J Pharmacol. 2012; 167(1):222-32).

CYP 2C19 = CYP 2C19 (Homo sapiens, UniProt P33261); test: Metabolism by recombinant human CYP isoforms; type: in vitro ADME; conditions: recombinant human CYP 25 pmol/ml, 37° C., NADPH-regenerating solution
CYP 2D6 = CYP 2D6 (Homo sapiens, UniProt P10635); test: Metabolism by recombinant human CYP isoforms; type: in vitro ADME; conditions: recombinant human CYP 25 pmol/ml, 37° C., NADPH-regenerating solution
CYP 1A2 = CYP 1A2 (Homo sapiens, UniProt P05177); test: Metabolism by recombinant human CYP isoforms; type: in vitro ADME; conditions: recombinant human CYP 25 pmol/ml, 37° C., NADPH-regenerating solution
CYP 2C9 = CYP 2C9 (Homo sapiens, UniProt P11712); test: Metabolism by recombinant human CYP isoforms; type: in vitro ADME; conditions: recombinant human CYP 25 pmol/ml, 37° C., NADPH-regenerating solution
CYP 3A4 = CYP 3A4 (Homo sapiens, UniProt P08684); test: Metabolism by recombinant human CYP isoforms; type: in vitro ADME; conditions: recombinant human CYP 25 pmol/ml, 37° C., NADPH-regenerating solution
liver microsomes [7] = system: liver microsomes
[8] = system: MDA-MB-231 human BC cells; test: Prevention of orthotopic MDA-MB-231 breast cancer xenografts in nude mice; type: in vivo; conditions: PA 120 mg/kg/d orally, from 1 wk prior to inoculating the cells
liver microsomes [9] = test: Metabolism in liver microsomes (HPLC)
[10] = cited from earlier work

Chain of CYP 2C9 (P11712 whole entry, canonical isoform): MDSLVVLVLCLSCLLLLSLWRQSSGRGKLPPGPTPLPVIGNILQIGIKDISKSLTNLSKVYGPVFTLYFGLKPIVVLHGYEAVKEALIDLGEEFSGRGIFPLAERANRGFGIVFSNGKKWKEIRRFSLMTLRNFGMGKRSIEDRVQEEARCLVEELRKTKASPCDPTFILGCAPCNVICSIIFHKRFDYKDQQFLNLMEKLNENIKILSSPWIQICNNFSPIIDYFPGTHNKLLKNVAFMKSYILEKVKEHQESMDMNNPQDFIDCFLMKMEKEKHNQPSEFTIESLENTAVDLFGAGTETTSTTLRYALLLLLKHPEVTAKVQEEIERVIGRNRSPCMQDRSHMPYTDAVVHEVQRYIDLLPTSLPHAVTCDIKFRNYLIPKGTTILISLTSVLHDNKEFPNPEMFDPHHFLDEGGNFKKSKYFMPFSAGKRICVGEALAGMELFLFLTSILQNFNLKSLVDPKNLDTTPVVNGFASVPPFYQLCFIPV
Chain of CYP 3A4 (P08684 whole entry, canonical isoform): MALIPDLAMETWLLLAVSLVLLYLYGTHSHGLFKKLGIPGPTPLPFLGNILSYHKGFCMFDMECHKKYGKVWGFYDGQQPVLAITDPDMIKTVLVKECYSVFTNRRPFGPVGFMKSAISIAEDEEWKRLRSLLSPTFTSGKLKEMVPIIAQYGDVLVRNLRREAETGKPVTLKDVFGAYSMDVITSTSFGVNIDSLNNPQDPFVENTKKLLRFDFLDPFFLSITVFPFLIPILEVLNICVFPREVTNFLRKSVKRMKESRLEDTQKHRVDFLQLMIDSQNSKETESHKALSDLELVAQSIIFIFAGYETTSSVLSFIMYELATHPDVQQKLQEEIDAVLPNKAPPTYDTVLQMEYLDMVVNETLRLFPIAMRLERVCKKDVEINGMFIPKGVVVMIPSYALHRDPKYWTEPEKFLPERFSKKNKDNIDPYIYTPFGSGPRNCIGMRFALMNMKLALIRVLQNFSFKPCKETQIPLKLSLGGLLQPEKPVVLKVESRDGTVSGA
Chain of CYP 1A2 (P05177 whole entry, canonical isoform): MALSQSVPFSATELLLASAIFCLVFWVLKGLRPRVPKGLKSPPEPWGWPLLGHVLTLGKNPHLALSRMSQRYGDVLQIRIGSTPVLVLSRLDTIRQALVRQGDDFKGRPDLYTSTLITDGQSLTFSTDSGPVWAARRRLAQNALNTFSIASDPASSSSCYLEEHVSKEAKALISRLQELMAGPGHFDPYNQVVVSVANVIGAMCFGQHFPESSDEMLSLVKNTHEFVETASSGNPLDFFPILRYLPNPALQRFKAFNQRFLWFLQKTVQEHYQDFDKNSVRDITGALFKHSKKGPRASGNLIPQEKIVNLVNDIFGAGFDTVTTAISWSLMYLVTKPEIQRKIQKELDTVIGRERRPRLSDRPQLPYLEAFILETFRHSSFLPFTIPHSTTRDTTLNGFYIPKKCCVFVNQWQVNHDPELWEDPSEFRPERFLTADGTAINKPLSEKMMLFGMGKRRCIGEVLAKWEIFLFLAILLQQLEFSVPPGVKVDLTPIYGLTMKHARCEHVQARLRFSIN
Chain of CYP 2D6 (P10635 whole entry, canonical isoform): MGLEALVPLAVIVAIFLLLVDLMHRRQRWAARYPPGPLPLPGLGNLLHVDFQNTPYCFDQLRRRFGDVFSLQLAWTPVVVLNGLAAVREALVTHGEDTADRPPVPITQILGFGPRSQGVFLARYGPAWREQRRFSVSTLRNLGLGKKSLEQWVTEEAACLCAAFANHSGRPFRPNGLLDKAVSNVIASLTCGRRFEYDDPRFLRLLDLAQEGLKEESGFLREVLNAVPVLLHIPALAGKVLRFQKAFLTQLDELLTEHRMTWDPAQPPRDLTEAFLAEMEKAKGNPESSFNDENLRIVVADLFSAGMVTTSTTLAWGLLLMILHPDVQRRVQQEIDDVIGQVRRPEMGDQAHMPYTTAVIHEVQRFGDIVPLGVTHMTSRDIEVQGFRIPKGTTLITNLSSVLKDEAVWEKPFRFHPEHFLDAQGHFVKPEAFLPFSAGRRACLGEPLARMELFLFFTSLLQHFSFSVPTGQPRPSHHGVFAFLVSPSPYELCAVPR
Chain of CYP 2C19 (P33261 whole entry, canonical isoform): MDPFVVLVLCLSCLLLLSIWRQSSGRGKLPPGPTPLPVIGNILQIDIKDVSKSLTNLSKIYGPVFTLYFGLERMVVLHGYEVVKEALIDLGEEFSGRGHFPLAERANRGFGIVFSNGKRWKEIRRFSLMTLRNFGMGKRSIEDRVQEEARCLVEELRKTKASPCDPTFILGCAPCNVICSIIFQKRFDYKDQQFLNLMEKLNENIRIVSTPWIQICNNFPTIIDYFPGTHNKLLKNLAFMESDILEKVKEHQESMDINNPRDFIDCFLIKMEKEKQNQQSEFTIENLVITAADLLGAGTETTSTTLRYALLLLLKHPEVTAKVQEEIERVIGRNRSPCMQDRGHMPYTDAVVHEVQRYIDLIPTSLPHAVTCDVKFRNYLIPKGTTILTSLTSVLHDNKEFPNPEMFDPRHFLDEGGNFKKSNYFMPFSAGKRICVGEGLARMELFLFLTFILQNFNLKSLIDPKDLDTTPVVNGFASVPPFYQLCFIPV

CCOP(=O)(OCC)OCCCCOC(=O)c1ccccc1SC/C=C(\C)CC/C=C(\C)CCC=C(C)C
cell growth, % control (AsPC-1): decreases pancreatic cancer cell growth in a concentration-dependent manner
cell growth, % control (CFPAC-1): decreases pancreatic cancer cell growth in a concentration-dependent manner
cell growth, % control (Capan-2): decreases pancreatic cancer cell growth in a concentration-dependent manner
cell growth, % control (MIA PaCa-2): decreases pancreatic cancer cell growth in a concentration-dependent manner
cell growth, % control (Panc-1): decreases pancreatic cancer cell growth in a concentration-dependent manner
reduction of tumor volume growth (MIA PaCa-2 cells; 50 mg/kg/d oral gavage in corn oil): 62%
reduction of tumor volume growth (MIA PaCa-2 cells; 100 mg/kg/d oral gavage in corn oil): 65%
tolerability in the efficacy study (MIA PaCa-2 cells; 50 or 100 mg/kg/d, 25 days): well tolerated
weight loss or other signs of toxicity in the efficacy study (MIA PaCa-2 cells; 50 or 100 mg/kg/d, 25 days): no weight loss or other signs of toxicity
weight loss or other signs of toxicity ([1]; 75, 150, 250 and 350 mg/kg oral gavage once a day for 3 weeks, female BALB/c mice): no weight loss or other signs of toxicity
MTD at 3 weeks ([1]; female, BALB/c, mouse, in vivo, 3-wk period of observation, oral gavage, read-out: (sub-chronic) maximum tolerated dose): ≥ 350 mg/kg/day
decrease of Ras-GTP compared with the parent compound (FTS) (Ras [2]; 50 μM): more pronounced
inhibition of active Ras (Ras-GTP) (Ras [2]): significantly inhibited active Ras (Ras-GTP) in a concentration-dependent manner
inhibition of the RAF/MEK/ERK and PI3K/AKT pathways [3]: significant time-dependent inhibition
reduction of RAS activation in xenografts (Ras [4]; 50 mg/kg): 62%
reduction of RAS activation in xenografts (Ras [4]; 100 mg/kg): 70%
p-ERK and p-AKT in xenografts by immunoblotting (p-ERK and p-AKT): inhibition of p-ERK and p-AKT
reduction of expression of p-c-RAF (p-c-RAF): 73%
reduction of expression of p-ERK1/2 (p-ERK1/2): 71%

CC(=O)Oc1ccccc1C(=O)O [ASA, acetylsalicylic acid]
highest dose that these mice could tolerate on a long-term basis ([5]; nude mice): 40 mg/kg/day
metabolites detected in plasma and xenograft tumors [6]: Only salicylic acid (SA) was detected
oxidation (conversion of PSA to 5-OH-PSA) by CYP 2C19 (CYP 2C19): cannot be oxidized
oxidation (conversion of PSA to 5-OH-PSA) by CYP 2D6 (CYP 2D6): cannot be oxidized
oxidation by CYP 1A2 (CYP 1A2): cannot be oxidized
oxidation by CYP 2C9 (CYP 2C9): cannot be oxidized
oxidation by CYP 3A4 (CYP 3A4): cannot be oxidized
oxidation by liver microsomes (liver microsomes [7]): not appreciably oxidized

CCOP(=O)(OCC)OCCCCOC(=O)c1ccccc1OC(C)=O [PA, phospho-aspirin]
average tumor volume reduced compared to controls [8]: 62%
treated mice that had no tumors ([8]; of the 20 treated mice): 20%
treated mice that had tumors <100 mm^3 ([8]; of the 20 treated mice): 30%
maximum tolerated dose (MTD) ([5]; mice): ≥ 1,600 mg/kg
intact PA in plasma or xenografts ([6]; mice treated with PA 120 mg/kg/d, HPLC): No intact PA in either plasma or xenografts was detected
metabolites detected in plasma and xenograft tumors [6]: Only salicylic acid (SA) was detected
difference in SA levels between PA and ASA groups ([6]; plasma and xenografts): no difference in SA levels
major metabolites detected in liver microsomes (liver microsomes [9]; HPLC): phospho-salicylic acid [PSA], 3-OH-PSA and 5-OH-PSA
deacetylation in liver microsomes (liver microsomes [9]; PA-treated liver microsomes): readily deacetylated

O=C(O)c1ccccc1O [SA, salicylic acid]
oxidation by liver microsomes (liver microsomes [7]): not appreciably oxidized

CC1=C(CC(=O)O)c2cc(F)ccc2/C1=C\c1ccc([S+](C)[O-])cc1 (stereo not drawn) [sulindac]
gastrointestinal side effects, share of patients [10]: up to 20%
skin rash and pruritus, share of patients [10]: 5%
